Biological target: T1, PAK7 (KIAA1264) (Homo sapiens, UniProt Q9P286)
T1 construct: purchased Thermo Fisher Scientific (Life Technologies) SelectScreen
Test: SelectScreen Z'LYTE
Assay type: biochemical
Procedure, shortened: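 NU5455 was profiled across the SelectScreen Broad panel of kinase activity and binding assays. Z'LYTE reactions such as CSF1R ran at apparent Km ATP, while the Adapta CAMK1 assay used ATP listed as 10. Values are given as percent.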

T1 sequence (Q9P286 whole entry): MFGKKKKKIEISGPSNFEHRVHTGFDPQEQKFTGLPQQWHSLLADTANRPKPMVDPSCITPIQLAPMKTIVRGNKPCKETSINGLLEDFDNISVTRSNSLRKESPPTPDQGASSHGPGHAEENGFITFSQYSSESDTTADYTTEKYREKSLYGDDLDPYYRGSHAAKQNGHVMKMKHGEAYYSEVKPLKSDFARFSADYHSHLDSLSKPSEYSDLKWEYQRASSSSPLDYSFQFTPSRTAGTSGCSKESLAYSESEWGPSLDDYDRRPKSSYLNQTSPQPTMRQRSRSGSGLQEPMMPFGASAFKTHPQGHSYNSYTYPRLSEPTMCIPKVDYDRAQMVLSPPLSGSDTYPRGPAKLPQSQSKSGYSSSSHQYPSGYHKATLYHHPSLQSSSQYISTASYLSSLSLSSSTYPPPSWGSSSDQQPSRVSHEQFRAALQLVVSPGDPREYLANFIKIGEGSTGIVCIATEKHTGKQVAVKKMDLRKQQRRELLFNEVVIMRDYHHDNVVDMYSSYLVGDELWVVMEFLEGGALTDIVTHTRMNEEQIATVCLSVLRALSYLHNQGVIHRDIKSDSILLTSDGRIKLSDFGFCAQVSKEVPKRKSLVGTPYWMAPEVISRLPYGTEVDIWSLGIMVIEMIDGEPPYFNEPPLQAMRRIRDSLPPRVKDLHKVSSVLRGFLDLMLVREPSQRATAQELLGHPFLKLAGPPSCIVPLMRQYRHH

SMILES: CN(C(=O)CN1CCOCC1)c1ccc2sc3c(-c4cccc5c(=O)cc(N6CC7CCC(C6)O7)oc45)cccc3c2c1 [NU5455]
- inhibition at 1 µM: 5.7%
